The values that follow come from PubChem BioAssay (NCI).

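Results reflect a 48-hour exposure of cells in 96-well plates to compound at five concentrations. The concentration for full growth arrest is given as TGI.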 Where only a bound is given, the exact number is not on record here.

Among the test systems are A549 NSCLC; HS 578T breast; IGROV1 ovarian; HL-60(TB) leukemia; PC-3 prostate; OVCAR-4 ovarian; UO-31 renal; 786-0 renal; A498 renal; UACC-62 melanoma; NCI-H226 lung; SK-MEL-28 melanoma; NCI-H460 lung.
Holding throughout (assay): inhibition of tumour cell growth, NCI panel, 48 h

Regarding `O=C1CCC(=O)N1CNc1ccc2c(c1)Sc1ccccc1O2`, the TGI in the test on A549 NSCLC is > 100 µM; in the test on HS 578T breast it was > 100 µM; in the test on IGROV1 ovarian it was > 100 µM; in the test on HL-60(TB) leukemia it was 54.8 µM; in the test with PC-3 prostate, > 100 µM; with OVCAR-4 ovarian it was > 100 µM. Further, the TGI in the test on UO-31 renal was 91.5 µM; in the test on 786-0 renal, 58.9 µM; in the test with A498 renal it was > 100 µM; in the test on UACC-62 melanoma it was > 100 µM; in the test on NCI-H226 lung it was 63.1 µM; in the test on SK-MEL-28 melanoma, > 100 µM.
With `CN(CCc1ccc(Br)cc1)CCN1CCCCC1`, the TGI with A549 NSCLC was > 100 µM; in the test on HS 578T breast it was 52.6 µM; in the test on NCI-H460 lung, > 100 µM; with IGROV1 ovarian, > 100 µM; in the test with PC-3 prostate it was > 100 µM; in the test on OVCAR-4 ovarian it was > 100 µM. For the same compound, the TGI in the test on UO-31 renal is > 100 µM; in the test on 786-0 renal it was > 100 µM; in the test on A498 renal, 63.2 µM; with NCI-H226 lung it was > 100 µM; in the test with SK-MEL-28 melanoma it was 52.1 µM.
Consider `COc1cc(CC2CCc3nc(N)nc(N)c3C2)cc(OC)c1OC` (stereo not drawn), for which the TGI was > 100 µM with A549 NSCLC; > 100 µM in the test on HS 578T breast; > 91.5 µM with NCI-H460 lung; 98.2 µM with IGROV1 ovarian; > 100 µM in the test with PC-3 prostate; > 100 µM in the test on OVCAR-4 ovarian. Also, the TGI in the test with UO-31 renal is > 71.5 µM; in the test with A498 renal it was > 87.8 µM; in the test with UACC-62 melanoma it was > 100 µM; in the test on NCI-H226 lung, > 66.1 µM; in the test with SK-MEL-28 melanoma it was > 100 µM.
In the case of `CCc1cc(-c2nsc(=O)o2)c(S(=O)(=O)CC)s1`, the TGI in the test on A549 NSCLC is > 100 µM; in the test on HS 578T breast, > 100 µM; in the test on NCI-H460 lung, > 100 µM; in the test with IGROV1 ovarian it was > 100 µM; in the test on HL-60(TB) leukemia, 12 µM; in the test on PC-3 prostate it was 85.1 µM. Moreover, the TGI with OVCAR-4 ovarian, with UO-31 renal, with 786-0 renal, in the test with A498 renal, in the test on NCI-H226 lung and with SK-MEL-28 melanoma was > 100 µM each time.
Turning to `O=C(O)C(Cc1ccc(O)cn1)NC(=O)C(F)(F)F` (stereo not drawn), the TGI with A549 NSCLC, with HS 578T breast, in the test with NCI-H460 lung, with IGROV1 ovarian, with HL-60(TB) leukemia and with PC-3 prostate was > 100 µM throughout. The TGI with UO-31 renal, in the test with 786-0 renal, in the test with A498 renal, in the test with NCI-H226 lung and with SK-MEL-28 melanoma was > 100 µM in each case.
`CC1=CC(C)C(C)N(CCNC(=O)Nc2ccccc2)c2ccccc21` (stereo not drawn): the TGI was 55.7 µM in the test with A549 NSCLC; 30.3 µM in the test with HS 578T breast; 74.4 µM in the test with NCI-H460 lung; > 100 µM in the test on IGROV1 ovarian; 69.2 µM with PC-3 prostate; > 100 µM in the test with OVCAR-4 ovarian. The TGI was 98.6 µM in the test with UO-31 renal; > 100 µM with 786-0 renal; 66 µM in the test on A498 renal; 49.4 µM in the test on UACC-62 melanoma; 72.9 µM in the test with NCI-H226 lung; > 100 µM with SK-MEL-28 melanoma.
For `COc1ccc(C2Oc3c(cccc3OC)C=C2[N+](=O)[O-])cc1OC` (stereo not drawn), the TGI in the test with A549 NSCLC is > 100 µM; in the test with HS 578T breast, > 100 µM; in the test with NCI-H460 lung, > 100 µM; in the test on IGROV1 ovarian, 24.7 µM; with HL-60(TB) leukemia, > 100 µM; in the test on PC-3 prostate, 26.5 µM. Moreover, the TGI in the test with OVCAR-4 ovarian was > 100 µM; with UO-31 renal, 29.2 µM; in the test with 786-0 renal, 19.7 µM; with UACC-62 melanoma it was 17.9 µM; in the test on NCI-H226 lung, 78.2 µM; in the test on SK-MEL-28 melanoma, 20.5 µM.
As for `CC(C)(C)CN1[C@@H]2CCCC[C@H]2N(CC(C)(C)C)P1(=O)Cc1ccccc1`, the TGI in the test with A549 NSCLC worked out at 24.1 µM; in the test with HS 578T breast, 31 µM; with NCI-H460 lung, 28.1 µM; in the test with IGROV1 ovarian, 23.3 µM; in the test with HL-60(TB) leukemia it was 26.4 µM; in the test with PC-3 prostate it was 19.4 µM. The TGI in the test with OVCAR-4 ovarian turned out to be 24.9 µM; in the test on UO-31 renal it was 26.1 µM; in the test on 786-0 renal it was 29.9 µM; in the test with UACC-62 melanoma, 22.5 µM; with NCI-H226 lung it was 29.7 µM; with SK-MEL-28 melanoma, 31.7 µM.
As for `CCCCCCCC1c2cc3[nH]c(cc4nc(cc5[nH]c(cc(n2)[C@@]1(C)CC(=O)N(C)C)c(C)c5CCC(=O)O)C(CCC(=O)O)=C4C)cc3C` (stereo partly drawn), the TGI is > 100 µM in the test on A549 NSCLC; 40.6 µM in the test with HS 578T breast; 43.8 µM with NCI-H460 lung; 39.6 µM in the test on IGROV1 ovarian; 45.8 µM in the test with HL-60(TB) leukemia; 64 µM with PC-3 prostate. The TGI was > 100 µM in the test with OVCAR-4 ovarian; 32.5 µM with UO-31 renal; 83.1 µM in the test on 786-0 renal; 87.2 µM in the test with A498 renal; 33.1 µM with UACC-62 melanoma; 35.8 µM in the test with SK-MEL-28 melanoma.
For the compound `CC1CCCOc2ccc(cc2)C=Nc2ccc(cc2)CCc2ccc(cc2)N=Cc2ccc(cc2)OCCC1` (stereo not drawn), the TGI with A549 NSCLC, in the test on HS 578T breast, in the test with NCI-H460 lung, with IGROV1 ovarian, with PC-3 prostate and with OVCAR-4 ovarian was > 100 µM throughout. The TGI with UO-31 renal, in the test with 786-0 renal, with A498 renal, in the test on UACC-62 melanoma, in the test with NCI-H226 lung and with SK-MEL-28 melanoma was > 100 µM in each case.
In the case of `N#Cc1c(C#N)c(-c2cccc([N+](=O)[O-])c2)n(-c2ccccc2)c1N`, the TGI in the test with A549 NSCLC, with HS 578T breast, with IGROV1 ovarian, in the test on HL-60(TB) leukemia, with PC-3 prostate and in the test with OVCAR-4 ovarian was > 100 µM in each case. Besides, the TGI in the test with UO-31 renal was > 100 µM; in the test with 786-0 renal it was > 100 µM; in the test on A498 renal, > 100 µM; in the test on UACC-62 melanoma it was > 100 µM; in the test with NCI-H226 lung it was 86.1 µM.
